Data set [1] in a line: Inhibition of IGFR.
Data set [2] in a line: Ratio of IC50 for IR to IC50 for IGFR.
The nature of data set [3]: Aqueous solubility at pH 7.4. The data set is classed as physicochemical.

Each structure is given as a SMILES string. Converted amounts (≈) assume the structure as drawn. Where only a bound is given, the exact number is not on record here.

What is called IC50 is the concentration that gives 50% inhibition. The low end stands for inhibition by little substance, the high end for a need for much substance. Broadly, the solubility is the dissolved amount per volume that the medium holds. The low end stands for a poorly soluble substance, the high end for a readily soluble substance.

With `COc1cc(Nc2ccc3c(c2)/C(=C/Nc2ccc(CN4CCCCC4)cc2)C(=O)NC3=O)cc(C(F)(F)F)c1`, the half-maximal inhibitory concentration (IC50) in data set [1] was above 10 µM.

In turn, `O=C1NC(=O)c2ccc(Nc3ccc4c(c3)OCO4)cc2/C1=C/Nc1ccc(CN2CCCCC2)cc1` gave an IC50 in data set [1] of 0.894 µM.

`O=C1NC(=O)c2ccc(Nc3cccc(F)c3)cc2/C1=C/Nc1ccc(CN2CCCCC2)cc1`: in data set [1], the IC50 turned out to be 2.63 µM.

In data set [1], `CN1CCN(c2ccc(N/C=C3\C(=O)NC(=O)c4ccc(NS(=O)(=O)c5ccccc5)cc43)cc2)CC1` showed an IC50 of 0.829 µM. Besides, the Ratio IC50 in data set [2] came to 0.83.

In data set [1], `O=C1NC(=O)c2ccc(Nc3ccccc3)cc2/C1=C/Nc1ccc(CN2CCCCC2)cc1` displayed an IC50 of 0.455 µM. Moreover, in data set [2], the Ratio IC50 is 0.87.

The molecule `O=C1NC(=O)c2ccc(Nc3ccc4c(c3)CCC4)cc2/C1=C/Nc1ccc(CN2CCCCC2)cc1` showed a 50% inhibitory concentration (IC50) in data set [1] of 7.93 µM.

In data set [1], `CCOC(=O)c1ccc(Nc2ccc3c(c2)/C(=C/Nc2ccc(CN4CCCCC4)cc2)C(=O)NC3=O)cc1` came in with an IC50 above 10 µM.

`O=C1NC(=O)c2ccc(Nc3ccc4[nH]ccc4c3)cc2/C1=C/Nc1ccc(CN2CCCCC2)cc1` displayed an IC50 in data set [1] above 10 µM.

Turning to `CC(=O)c1cccc(Nc2ccc3c(c2)/C(=C/Nc2ccc(N4CC(C)NC(C)C4)cc2)C(=O)NC3=O)c1` (stereo unspecified), 0.54 µM corresponded to half-maximal inhibition in data set [1] (IC50). For the same molecule, the Ratio IC50 in data set [2] came out at 0.85.

With `O=C1NC(=O)c2ccc(Nc3ccc(Cl)cc3)cc2/C1=C/Nc1ccc(CN2CCCCC2)cc1`, the concentration for half-maximal inhibition (IC50) in data set [1] was above 10 µM.

`O=C1NC(=O)c2ccc(Nc3cccc(C(F)(F)F)c3)cc2/C1=C/Nc1ccc(CN2CCCCC2)cc1` yielded an IC50 in data set [1] above 10 µM.

With `O=C1NC(=O)c2ccc(Nc3ccccc3Cl)cc2/C1=C/Nc1ccc(CN2CCCCC2)cc1`, the midpoint of inhibition in data set [1], the IC50, lay at 1.66 µM. This counts as single-digit micromolar.

As to `COc1ccc(Nc2ccc3c(c2)/C(=C/Nc2ccc(CN(C)C)cc2)C(=O)NC3=O)cc1`, 0.566 µM corresponded to half-maximal inhibition in data set [1] (IC50). In data set [2], the Ratio IC50 was determined as 0.69.

In data set [1], `CC(=O)c1cccc(Nc2ccc3c(c2)/C(=C/Nc2ccc(N4CCN(C)CC4)cc2)C(=O)NC3=O)c1` registered an IC50 of 0.319 µM. Further, the Ratio IC50 in data set [2] stood at 1.6. This molecule had a solubility in data set [3] of 1000 µg/mL (≈ 2020 µM).

In turn, `N#Cc1ccc(Nc2ccc3c(c2)/C(=C/Nc2ccc(CN4CCCCC4)cc2)C(=O)NC3=O)cc1` had a concentration for half-maximal inhibition (IC50) in data set [1] of 1.33 µM.

`O=C1NC(=O)c2ccc(-c3ccoc3)cc2/C1=C/Nc1ccc(CN2CCCCC2)cc1` came in with an IC50 in data set [1] of 0.715 µM. The Ratio IC50 in data set [2] stood at 0.75.

For the molecule `N#Cc1ccccc1Nc1ccc2c(c1)/C(=C/Nc1ccc(CN3CCCCC3)cc1)C(=O)NC2=O`, inhibition in data set [1] was half-maximal at 4.2 µM (IC50).

As for `Cc1cccc(Nc2ccc3c(c2)/C(=C/Nc2ccc(CN4CCCCC4)cc2)C(=O)NC3=O)c1`, the IC50 in data set [1] was above 10 µM.

Regarding `O=C1NC(=O)c2ccc(Br)cc2/C1=C/Nc1ccc(CN2CCCC2)cc1`, the IC50 in data set [1] was found to be 2.42 µM.

`CN(C)Cc1ccc(N/C=C2\C(=O)NC(=O)c3ccc(Nc4ccccc4)cc32)cc1` displayed a half-inhibitory concentration (IC50) in data set [1] of 0.92 µM. In data set [2], the Ratio IC50 was 0.62.

`Cc1ccc(Nc2ccc3c(c2)/C(=C/Nc2ccc(CN4CCCCC4)cc2)C(=O)NC3=O)cc1` yielded an IC50 in data set [1] of 0.498 µM. In addition, in data set [2], the Ratio IC50 worked out at 1.14.

On to `NC(=O)c1ccc(Nc2ccc3c(c2)/C(=C/Nc2ccc(CN4CCCCC4)cc2)C(=O)NC3=O)cc1`, for which the IC50 in data set [1] was 0.957 µM.

`CN(C)Cc1ccc(N/C=C2\C(=O)NC(=O)c3ccc(Br)cc32)cc1` gave an IC50 in data set [1] of 7.17 µM. Moreover, the Ratio IC50 in data set [2] worked out at 0.58.

For `CC(=O)c1cccc(Nc2ccc3c(c2)/C(=C/Nc2ccc(CN(C)C)cc2)C(=O)NC3=O)c1`, inhibition in data set [1] was half-maximal at 0.887 µM (IC50). The Ratio IC50 in data set [2] turned out to be 0.87.

On to `O=C1NC(=O)c2ccc(Br)cc2/C1=C/Nc1ccc(CN2CCCCC2)cc1`, for which, in data set [1], the IC50 was determined as 2.89 µM.

Molecule `O=C1NC(=O)c2ccc(Nc3cccc(Cl)c3)cc2/C1=C/Nc1ccccc1` displayed an IC50 in data set [1] above 10 µM.

With `N#Cc1cccc(Nc2ccc3c(c2)/C(=C/Nc2ccc(CN4CCCCC4)cc2)C(=O)NC3=O)c1`, in data set [1], the IC50 was found to be 1.13 µM.

In data set [1], `COc1cccc(Nc2ccc3c(c2)/C(=C/Nc2ccc(CN(C)C)cc2)C(=O)NC3=O)c1` had a half-maximal inhibitory concentration (IC50) of 1.39 µM. Further, the Ratio IC50 in data set [2] amounted to 0.48.

In data set [1], `CC1CN(c2ccc(N/C=C3\C(=O)NC(=O)c4ccc(-c5ccoc5)cc43)cc2)CC(C)N1` (stereo unspecified) showed an IC50 of 0.629 µM. Moreover, in data set [2], the Ratio IC50 worked out at 1.

On to `COc1ccc(Nc2ccc3c(c2)/C(=C/Nc2ccc(CN4CCCCC4)cc2)C(=O)NC3=O)cc1`, for which 0.971 µM corresponded to half-maximal inhibition in data set [1] (IC50).

Take `COc1ccccc1Nc1ccc2c(c1)/C(=C/Nc1ccc(CN3CCCCC3)cc1)C(=O)NC2=O`: the IC50 in data set [1] was determined as 0.61 µM.

`Cc1ccccc1Nc1ccc2c(c1)/C(=C/Nc1ccc(CN3CCCCC3)cc1)C(=O)NC2=O` displayed an IC50 in data set [1] of 4.14 µM. Against the preceding molecule, the IC50 is about 6.8-fold higher.

Turning to `O=C1NC(=O)c2ccc(Nc3cccc(Cl)c3)cc2/C1=C/Nc1ccc(CN2CCCCC2)cc1`, in data set [1], it took 2.39 µM to reach half-maximal inhibition (IC50).

Consider `COc1cccc(Nc2ccc3c(c2)/C(=C/Nc2ccc(CN4CCCCC4)cc2)C(=O)NC3=O)c1`, for which the IC50 in data set [1] was 1.08 µM.

The molecule `CCN(CC)Cc1ccc(N/C=C2\C(=O)NC(=O)c3ccc(Nc4ccc(C)cc4)cc32)cc1` returned an IC50 in data set [1] of 1.16 µM. Besides, in data set [2], the Ratio IC50 turned out to be 0.64.

In turn, `Nc1cccc(Nc2ccc3c(c2)/C(=C/Nc2ccc(CN4CCCCC4)cc2)C(=O)NC3=O)c1` returned an IC50 in data set [1] above 10 µM.

`COc1cccc(Nc2ccc3c(c2)/C(=C/Nc2ccccc2)C(=O)NC3=O)c1` returned an IC50 in data set [1] above 10 µM.

Take `CC(=O)c1ccc(Nc2ccc3c(c2)/C(=C/Nc2ccc(CN4CCCCC4)cc2)C(=O)NC3=O)cc1`: the IC50 in data set [1] is 5.89 µM.

Consider `O=C1NC(=O)c2ccc(Nc3cccc4ncccc34)cc2/C1=C/Nc1ccc(CN2CCCCC2)cc1`, for which, in data set [1], 5.2 µM corresponded to half-maximal inhibition (IC50).

The molecule `CN(C)c1ccc(Nc2ccc3c(c2)/C(=C/Nc2ccc(CN4CCCCC4)cc2)C(=O)NC3=O)cc1` came in with an IC50 in data set [1] above 10 µM.

The molecule `CC(=O)c1cccc(Nc2ccc3c(c2)/C(=C/Nc2ccc(CN4CCCCC4)cc2)C(=O)NC3=O)c1` displayed an IC50 in data set [1] of 0.438 µM. In data set [2], the Ratio IC50 came out at 0.72.

The record behind these values is ChEMBL document CHEMBL1145573, “Lead identification to generate isoquinolinedione inhibitors of insulin-like growth factor receptor (IGF-1R) for potential use in cancer treatment” (Bioorg Med Chem Lett, 2008).
